From patent publication US10874745B2, “Antimicrobial peptides and methods of treating gram-negative pathogens: polar and non-polar face analogs” (priority 2017, dated 2020)
In brackets after ≈: the same amount, converted by molar mass. Several values for one entry are separate records, joined by “and”; a condition that tells them apart may be missing. Equal entries are not always repeated. Where two headings read alike, the source gives them in different places. Non-standard residues stand in square brackets, D forms with d. Residues, ends and D or L forms follow the SMILES beside them.

Experiments:
[1] = system: A. baumannii strains resistant to Polymyxin B and Colistin; type: cell-based; details: for MICGM: geometric mean, 7 A. baumannii strains resistant to polymyxin B and colistin
MRSA = experiment: Resistance profile of MRSA strains; type: cell-based, Staphylococcus aureus; set-up: key: R denotes resistant; S denotes sensitive
MSSA = experiment: Resistance profile of MSSA strains; type: cell-based, Staphylococcus aureus; set-up: key: R denotes resistant; S denotes sensitive
Hemolytic activity = type: cell-based, human; details: 1% human erythrocytes (red blood cells), pH 7.4
Description: Hemoglobin release was determined spectrophotometrically at 570 nm. […] […] […] With the peptides used in this study the inventors used the HC30/MIC ratio value to calculate the therapeutic index.

[2] = 50% hemolysis of human red blood cells after 18 hours at 37° C., read-out: HC50

Compound	Antibiotic Susceptibility (MRSA; MRSA strain M21742 (Nose))	Antibiotic Susceptibility (MRSA; MRSA strain M21756 (Nose))	Antibiotic Susceptibility (MRSA; MRSA strain M22111 (Ear))	Antibiotic Susceptibility (MRSA; MRSA strain M22130)	Antibiotic Susceptibility (MRSA; MRSA strain M22224 (Leg))	Antibiotic Susceptibility (MRSA; MRSA strain M22354)	Antibiotic Susceptibility (MRSA; MRSA strain M22360 (Labia))	Antibiotic Susceptibility (MRSA; MRSA strain M22424 (Arm))	Antibiotic Susceptibility (MSSA; MSSA strain BL7429 (Blood))	Antibiotic Susceptibility (MSSA; MSSA strain M21913 (Finger))	Antibiotic Susceptibility (MSSA; MSSA strain M22075 (Axilla))	Antibiotic Susceptibility (MSSA; MSSA strain M22097 (Neck))	Antibiotic Susceptibility (MSSA; MSSA strain M22274 (Spine))	Antibiotic Susceptibility (MSSA; MSSA strain M22300 (Finger))	Antibiotic Susceptibility (MSSA; MSSA strain M22312 (Finger))	Antibiotic Susceptibility (MSSA; MSSA strain M22315)	HC50 at 18 h (Hemolytic activity; [2])	other results
Polymyxin B [reference compound]	–	–	–	–	–	–	–	–	–	–	–	–	–	–	–	–	–	MICGM [1]: >25 µM; MIC ([1]; strain M89941): >25 µM; MIC ([1]; strain M89949): >25 µM; MIC ([1]; strain M89951): >25 µM; MIC ([1]; strain M89952): >25 µM; MIC ([1]; strain M89953): >25 µM; MIC ([1]; strain M89955): >25 µM; MIC ([1]; strain M89963): >25 µM
CCC[C@@H]1C[C@@H](C(=O)N[C@@H]([C@H]2O[C@H](SC)[C@H](O)[C@@H](O)[C@H]2O)[C@H](C)Cl)N(C)C1 [Clindamycin]	S	S	R	S	S	S	S	S^c	S	S	S	S	S	S	S	S	–	Antibiotic Susceptibility (MSSA; MSSA strain M22287 (Hip)): S
CC(=O)N[C@H](CCCCN)C(=O)N[C@H](CC(C)C)C(=O)N[C@H](CCCCN)C(=O)N[C@H](CO)C(=O)N[C@H](CC(C)C)C(=O)N[C@H](CC(C)C)C(=O)N[C@H](CCCCN)C(=O)N[C@@H](C(=O)N[C@H](CC(C)C)C(=O)N[C@H](CO)C(=O)N[C@H](CCCCN)C(=O)N[C@H](C)C(=O)N[C@H](CCCCN)C(=O)N[C@H](C)C(=O)N[C@H](C)C(=O)N[C@H](CCCCN)C(=O)N[C@H](CC(C)C)C(=O)N[C@H](CCCCN)C(=O)N[C@@H](C(=O)N[C@H](CC(C)C)C(=O)N[C@H](CC(C)C)C(=O)N[C@H](CCCCN)C(=O)N[C@H](C)C(=O)N[C@H](CC(C)C)C(=O)N[C@H](CO)C(=O)N[C@H](CCCCN)C(N)=O)[C@H](C)O)[C@H](C)O [Peptide D84, Ac-KL(Lys)SLL(Lys)TLS(Lys)AKAAKL(Lys)TLL(Lys)ALS(Lys)-amide]	–	–	–	–	–	–	–	–	–	–	–	–	–	–	–	–	–	MIC ([1]; strain MB9941 (Table 9C)): 0.3 µM (≈ 0.86 µg/mL); MIC ([1]; strain MB9949 (Table 9C)): 0.7 µM (≈ 2.01 µg/mL); MIC ([1]; strain MB9951 (Table 9C)): 0.3 µM (≈ 0.86 µg/mL); MIC ([1]; strain MB9952 (Table 9C)): 0.7 µM (≈ 2.01 µg/mL); MIC ([1]; strain MB9953 (Table 9C)): 0.7 µM (≈ 2.01 µg/mL); MIC ([1]; strain MB9955 (Table 9C)): 0.3 µM (≈ 0.86 µg/mL); MIC ([1]; strain MB9963 (Table 9C)): 0.7 µM (≈ 2.01 µg/mL); HC50 at 18 h (Hemolytic activity; human): 156 µg/mL
CC[C@H]1OC(=O)[C@H](C)[C@@H](O[C@H]2C[C@@](C)(OC)[C@@H](O)[C@H](C)O2)[C@H](C)[C@@H](O[C@@H]2O[C@H](C)C[C@H](N(C)C)[C@H]2O)[C@](C)(O)C[C@@H](C)C(=O)[C@H](C)[C@@H](O)[C@]1(C)O [Erythromycin]	R	S	R	R	R	R	R	R	S	S	S	S	S	S	S	S	–	–
CC(=O)N[C@H](CCCCN)C(=O)N[C@H](CC(C)C)C(=O)N[C@H](CCCNC(=N)N)C(=O)N[C@H](CO)C(=O)N[C@H](CC(C)C)C(=O)N[C@H](CC(C)C)C(=O)N[C@H](CCCNC(=N)N)C(=O)N[C@@H](C(=O)N[C@H](CC(C)C)C(=O)N[C@H](CO)C(=O)N[C@H](CCCNC(=N)N)C(=O)N[C@H](C)C(=O)N[C@H](CCCCN)C(=O)N[C@H](C)C(=O)N[C@H](C)C(=O)N[C@H](CCCCN)C(=O)N[C@H](CC(C)C)C(=O)N[C@H](CCCNC(=N)N)C(=O)N[C@@H](C(=O)N[C@H](CC(C)C)C(=O)N[C@H](CC(C)C)C(=O)N[C@H](CCCNC(=N)N)C(=O)N[C@H](C)C(=O)N[C@H](CC(C)C)C(=O)N[C@H](CO)C(=O)N[C@H](CCCNC(=N)N)C(N)=O)[C@H](C)O)[C@H](C)O [Peptide D87, Ac-KL(Arg)SLL(Arg)TLS(Arg)AKAAKL(Arg)TLL(Arg)ALs(Arg)-amide] (Ac-[dK][dL][dR][dS][dL][dL][dR][dT][dL][dS][dR][dA][dK][dA][dA][dK][dL][dR][dT][dL][dL][dR][dA][dL][dS][dR]-NH2)	–	–	–	–	–	–	–	–	–	–	–	–	–	–	–	–	12 µg/mL	–
CC(=O)N[C@H](CCCCN)C(=O)N[C@H](CC(C)C)C(=O)N[C@H](CCCCN)C(=O)N[C@H](CO)C(=O)N[C@H](CC(C)C)C(=O)N[C@H](CC(C)C)C(=O)N[C@H](CCCCN)C(=O)N[C@@H](C(=O)N[C@H](CC(C)C)C(=O)N[C@H](CO)C(=O)N[C@H](C)C(=O)N[C@H](C)C(=O)N[C@H](CCCCN)C(=O)N[C@H](CCCCN)C(=O)N[C@H](CCCCN)C(=O)N[C@H](CCCCN)C(=O)N[C@H](CC(C)C)C(=O)N[C@H](C)C(=O)N[C@@H](C(=O)N[C@H](CC(C)C)C(=O)N[C@H](CC(C)C)C(=O)N[C@H](CCCCN)C(=O)N[C@H](C)C(=O)N[C@H](CC(C)C)C(=O)N[C@H](CO)C(=O)N[C@H](CO)C(N)=O)[C@H](C)O)[C@H](C)O [Peptide D103, Ac-KL(Lys)SLL(Lys)TLSAAK(Lys)(Lys)KLATLL(Lys)ALSS-amide] (Ac-[dK][dL][dK][dS][dL][dL][dK][dT][dL][dS][dA][dA][dK][dK][dK][dK][dL][dA][dT][dL][dL][dK][dA][dL][dS][dS]-NH2)	–	–	–	–	–	–	–	–	–	–	–	–	–	–	–	–	381 µg/mL and 135 µM	–
CC(=O)N[C@H](CCCCN)C(=O)N[C@H](CC(C)C)C(=O)N[C@H](CCCCN)C(=O)N[C@H](CO)C(=O)N[C@H](CC(C)C)C(=O)N[C@H](CC(C)C)C(=O)N[C@H](CCCCN)C(=O)N[C@@H](C(=O)N[C@H](CC(C)C)C(=O)N[C@H](CO)C(=O)N[C@H](CCCCN)C(=O)N[C@H](C)C(=O)N[C@H](CCCCN)C(=O)N[C@H](C)C(=O)N[C@H](C)C(=O)N[C@H](CCCCN)C(=O)N[C@H](CC(C)C)C(=O)N[C@H](CCCCN)C(=O)N[C@@H](C(=O)N[C@H](CC(C)C)C(=O)N[C@H](CC(C)C)C(=O)N[C@H](CCCCN)C(=O)N[C@H](C)C(=O)N[C@H](CC(C)C)C(=O)N[C@H](CO)C(=O)N[C@H](CO)C(N)=O)[C@H](C)O)[C@H](C)O [Peptide D101, Ac-KL(Lys)SLL(Lys)TLS(Lys)AKAAKL(Lys)TLL(Lys)ALSS-amide]	–	–	–	–	–	–	–	–	–	–	–	–	–	–	–	–	279 µg/mL and > 104 µM	–
Cc1onc(-c2ccccc2)c1C(=O)N[C@@H]1C(=O)N2[C@@H]1SC(C)(C)[C@@H]2C(=O)O [Oxacillin]	R	R	R	R	R	R	R	R^c	S	S	S	S	S	S	S	S	–	Antibiotic Susceptibility (MSSA; MSSA strain M22287 (Hip)): S
Colistin [reference compound]	–	–	–	–	–	–	–	–	–	–	–	–	–	–	–	–	–	MICGM [1]: >28 µM; MIC ([1]; strain M89941): >28 µM; MIC ([1]; strain M89949): >28 µM; MIC ([1]; strain M89951): >28 µM; MIC ([1]; strain M89952): >28 µM; MIC ([1]; strain M89953): >28 µM; MIC ([1]; strain M89955): >28 µM; MIC ([1]; strain M89963): >28 µM
